Results from paper PMC6033896, “Discovery of Mcl-1 inhibitors from integrated high throughput and virtual screening” (Scientific Reports, 2018).

Columns and labels:
[1] = biological target: T1, Mcl-1 protein (Homo sapiens, UniProt Q07820); experiment: FP-based competitive binding assay with fluorescent labelled Bid BH3 peptide; details: for Ki: calculated from FP IC50; for IC50: competition with fluorescent Bid probe 2 nM, 20 nM Mcl-1 for purchased compounds, 10 nM for synthesized library
T1 construct: human Mcl-1 (residues 171–323); His tag (pHis-TEV vector) (N, cleaved yes); made in house; host or cells: E. coli BL21 (DE3)
Description: FP-based binding assays were developed and optimized to determine the binding affinities of inhibitors to the recombinant Mcl-1, Bcl-2, Bcl-xL, and Bfl-1, proteins. […] The fluorescent Bid probe was fixed at 2 nM for all assays, except for Bfl-1, where 1 nM was used. 5 μL of the tested compound in DMSO and 120 μL of protein/probe complex in the assay buffer were added to assay plates (Corning #3792), incubated at room temperature for 3 h, and the polarization values (mP) were measured at an excitation wavelength of 485 nm and an emission wavelength of 530 nm using the plate reader Synergy H1 Hybrid, BioTek. IC50 values were determined by nonlinear regression fitting of the competition curves (GraphPad Prism 6.0 Software). The Ki values were calculated as described previously.
1. List of compounds purchased from vendors
Compound s 5, 6, 7, 8 and S3, S4, S5, S6 S7, S8, S9, S10, S17 were purchased from […]
Compound s 9, 10, 11 and S11, S12, S13 were purchased from I nterbioscreen […]
His-tagged proteins containing human Mcl-1 (residues 171–323), the isoform 2 construct of the human Bcl-2 [Bcl2-2 construct for protein production starts with the Bcl2 sequence of 1-34 a a, followed by the Bcl-xL seq uence of 35-50 aa, and ends with the Bcl-2 sequenc e of 92-202aa.], Bcl-xL (Human Bcl-xL protein, which has an internal deletion for the 45 -85 amino acid residues and a C -terminal truncation for the amino acid residues 212-233), and Bf l-1 (residues 1-151), were expres sed from the pHis -TEV vector (a modified pET vector) in E. coli BL21 (DE3) cells. Cells were grown at 37 °C in 2×YT containing antibiotics to an OD600 density of 1.5, 1 and 0.8 for Mcl-1, Bcl-xL and Bcl-2 respectively. Protein expression wa s induced by 0 .4 mM IPTG at 20 °C overnight for all proteins except for Bf l-1 which was e xpressed at 3 7 °C for four hours . Cells were lysed in 20 mM HEPES pH 7.5, 200 mM NaCl, 0.1% βME with Leupeptin/Aprotinin (Mcl-1), 25mM Tris pH 8.5, 200mM NaCl (Bcl-2), 50mM Tris pH 7.5, 200 mM NaCl (Bcl-xL) and 50 mM Tris pH 8, 500 mM NaCl, 0. 1% βME with Leupeptin/Aprotinin (Bf l-1). All […]
proteins were purified from the soluble fraction using Ni-NTA resin (QIAGEN), following the manufacturer’s instructions. For purification of TEV-cleaved protein, the amino-terminal His tag was cleaved by incubation with TEV protease and the protein was further purified by anion exchange (Source Q) and gel filtration chromatography (Superdex 75, Amersham Biosciences) in 20mM HEPES pH 7.0, 50 mM NaCl (Mcl-1), […]
NaCl, 0.1% βME (Bcl-xL) and 25 mM Tris pH 7.5, 150 mM NaCl, 25% Glycerol, 0.1% βME ( Bf l-1). His-tagged Mcl-1 protein was used for TR-FRET assay and HSQC-NMR.
His-TEV cleaved Mcl-1, Bcl-2, Bcl-xL, and Bf l-1 were used in fluorescent polarization and surface plasmon resonance binding assays.
Mutant Mcl-1 protein wa s prepared by the QuikChange site -directed mutagenesi s method (Stratagene) , where Arg263 was mutated to Ala. The R263A expression pla smid was transformed into Rosetta2 DE3 cells and purified by the same method as the wildtype protein. Cultures were grown to an OD 600 of 1. 5 at 37 °C in Terrific Broth, induced with 0. 4 mM IPTG, and express ed overnight at 20 °C. The follow-up purification was performed the same way as was for Mcl-1 wild-type recombinant

[2] = biological target: T1, Mcl-1 protein; experiment: TR-FRET binding assay with Bid-Dy647 peptide; details: 10 nM Mcl-1, 10 nM Bid-Dy647
Description: TR-FRET was performed using black 384-well plates in an Envision Multilabel plate reader (Perkin Elmer Life Sciences). To each well, a mixture of 10 nM Bid-Dy647 peptide (79–99), 10 nM Mcl-1 protein, and Europium-anti-His antibody were added to a final volume of 25 μl in the assay buffer (20 mM potassium phosphate, pH 7.5; 50 mM NaCl, 1 mM EDTA and 0.05% Pluronic F68). The TR-FRET signals were measured with an Envision Multilabel plate reader after 2 h of incubation. (Ex 340 nm, Em615 nm and Em665 nm) and expressed as FRET signal ratio (F665 nm/[…] * 104)

[3] = biological target: T1, Mcl-1 protein; experiment: SPR-based solution competitive binding assay, immobilized biotin-labelled Bim BH3 peptide; details: Mcl-1 20 nM; competition with immobilized Bim BH3 peptide
Description: The solution competitive SPR-based assay was performed on Biacore 2000 in a similar way as was already reported. Briefly, N terminal biotin-labelled Bim BH3 peptide (141–166 amino acids) was immobilized on streptavidin (SA) chip giving a density of 800 RU (Response Units). The pre-incubated Mcl-1 protein (20 nM) with tested small-molecule inhibitors for at least 30 min was injected over the surfaces of the chip using assay buffer HBS-P (GE, #BR100368). Response units were measured at 15 s in the dissociation phase, and IC50 values were determined by nonlinear least-squares analysis using GraphPad Prism 6.0 software.

[4] = tested on: Eµ-myc lymphoma cells overexpressing Mcl-1; experiment: Eµ-myc lymphoma cell viability, flow cytometry; assay type: cell-based, mice; details: increasing concentrations, 15 h
Description: (§1) MEF cells, including wild-type, Bax/Bak double knockout, Bax−/− single knockout, and Bak−/− single knockout were tested and characterized (Supplementary Fig. S3). The cells were cultured in DMEM (Life Technologies), supplemented with 10% fetal bovine serum (FBS) (Thermo Scientific HyClone) and 1% Penicillin/streptomycin solution (Life Technologies). The retrovirally transduced lymphoma cells isolated from Eμ-myc transgenic mice were provided by Ricky W. Johnstone at the University of Melbourne, Melbourne, Australia and cultured as previously described[37],[65].
(§2) The Mcl-1, Bcl-2, and Bcl-xL retroviral transduced lymphoma Eμ-myc cells were seeded in 12-well plates at 0.5 × 10^6 cells/well. […] The cells were harvested and stained with violet LIVE/DEAD Fixable Dead Cell Stain Kit (Invitrogen) according to manufacturer’s protocol. The percentage of fluorescent positive cells was determined by flow cytometry and calculated using WinList 3.0.

[5] = tested on: Eµ-myc lymphoma cells overexpressing Bcl-2; experiment: Eµ-myc lymphoma cell viability, flow cytometry; assay type: cell-based, mice; details: increasing concentrations
Description: as §1, §2

T1 sequence (Q07820 171-323): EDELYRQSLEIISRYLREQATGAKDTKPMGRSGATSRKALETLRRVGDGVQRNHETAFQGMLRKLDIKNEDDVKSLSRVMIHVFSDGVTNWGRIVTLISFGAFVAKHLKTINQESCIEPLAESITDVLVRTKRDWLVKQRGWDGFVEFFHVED

| Compound | Ki [1] [nM] | IC50 [1] [µM] | IC50 [2] [µM] | IC50 [3] [µM] | killing of Eµ-myc cells overexpressing Mcl-1 [4] | effect on Eµ-myc cells overexpressing Bcl-2 [5] |
| --- | --- | --- | --- | --- | --- | --- |
| O=C(Nc1ccccc1)c1ccc2nc(-c3ccco3)c(-c3ccco3)nc2c1 [Compound 45] | > 12500 | > 50 | – | – | – | – |
| CN(C)c1ccc(NC(=O)CSc2nnc(-c3ccco3)c(-c3ccco3)n2)cc1 [Compound 32] | > 25000 | > 100 | > 80 | > 100 | – | – |
| CC(C)c1cccc(NC(=O)CSc2nnc(-c3ccco3)c(-c3ccco3)n2)c1 [Compound 38] | 600 ± 100 | 2.6 ± 0.3 | – | – | killing | selectivity |
| Cc1ccc(NC(=O)c2ccc3nc(-c4ccco4)c(-c4ccco4)nc3c2)cc1 [Compound 46] | 15800 ± 2300 | 67.1 ± 9.1 | – | – | – | – |
| O=C(CSc1nnc(-c2ccco2)c(-c2ccco2)n1)Nc1cccc(-c2ccccc2)c1 [Compound 40] | 1000 ± 400 | 4.1 ± 1.5 | 7.9 ± 4.7 | 7.3 ± 2.1 | – | – |
| CCc1ccc(NC(=O)CSc2nnc(-c3ccco3)c(-c3ccco3)n2)cc1 [Compound 28] | 1200 ± 100 | 5 ± 0.3 | 5.5 ± 1.8 | 14.3 ± 2 | – | – |
| O=C(CSc1nnc(-c2ccco2)c(-c2ccco2)n1)Nc1ccc(Oc2ccccc2)cc1 [Compound 31] | 1600 ± 400 | 6.9 ± 1.9 | 9 ± 3.8 | – | – | – |
| O=C(CSc1nnc(-c2ccco2)c(-c2ccco2)n1)Nc1ccc(-c2ccccc2)cc1 [Compound 35] | 600 ± 100 | 2.5 ± 0.1 | 5 ± 2.7 | 5.1 ± 2.3 | – | – |
| Nc1ccc(NC(=O)CSc2nnc(-c3ccco3)c(-c3ccco3)n2)cc1 [Compound 33] | > 25000 | > 100 | – | > 100 | – | – |
| O=C(CSc1nnc(-c2ccccc2)c(-c2ccccc2)n1)Nc1ccccc1 [Compound 26] | > 5000 | > 20 | – | > 100 | – | – |
